Reference: patent publication US10112911B2, “Substituted cyanoguanidines as oral anti-virals” (Abbvie Inc, priority 2012, dated 2018)
Structures can show the parent of a compound that is named as a salt. Where two headings read alike, the source gives them in different places.

Experiments:
[1] = system: RSV (Group A, Long Strain); assay: Cytopathetic effect (CPE) protection antiviral assay, MTT readout; format: cell-based; details: human respiratory syncytial virus, HEp-2, 96 h, read-out: RSV EC50
Description: HEp-2 cells and RSV (Group A, Long Strain) were obtained from the American Type Culture Collection (Manassas, Va.).
A cytopathetic effect (CPE) protection assay was performed to determine the ability of a compound to protect the cells from viral infection and thus the CPE induced by viral infection. 96-Well plates were first seeded with […] per well in Dulbecco's modified Eagle's medium (DMEM) containing 10% fetal bovine serum (FBS). One day after the cells were seeded, they were preincubated with serial dilutions of compounds prepared in 100 μL assay medium (DMEM mixed with F12 medium at a 1:1 ratio, supplemented with 2% FBS and 1 mM sodium pyruvate) for 1 hour at 37° C. 100 μL of assay medium containing 0.2 multiplicity of infection (MOI) of RSV was then added to each well of cells. In addition to wells containing infected cells incubated with compounds, each plate also contained replicates of two kinds of controls: (1) Virus control contained cells infected with 0.2 MOI of RSV in assay medium, (2) Uninfected cell control contained cells incubated with assay medium only. After 4 days of incubation at 37° C., the viability of cells was assessed using MTT (Thiazolyl blue tetrazolium bromide, Sigma). A stock solution of MTT, at a concentration of 4 mg/mL in phosphate-buffered saline, was added to all wells at 25 μL per well. Plates were further incubated for 4 hours, and each well was then treated with 50 μL of a solution containing 20% sodium dodecyl sulfate (SDS) and 0.02 N HCl. After an overnight incubation, the plates were measured on a BioTek® microtiter plate reader at wavelengths of 570 nm and 650 nm. The MTT detection is based on the fact that viable (uninfected) cells can reduce the tetrazolium salts into colored formazan products, which can then be quantitated by spectrometry. Based on the spectrometric absorbance of each sample, the percent of protection from CPE, which is an indicator of protection from viral infection, can be calculated for each compound and the 50% effective concentrations (EC50) can be calculated using a nonlinear regression curve fitting equation provided by the GraphPad Prism® 4 software.
Compounds were tested to determine both their antiviral and toxicity to determine their therapeutic window. Determination of the EC50 and TD50 of these active compounds were repeated one additional time to confirm the window.

HEp-2 cells = assay: Cytotoxicity assay (MTT) run in parallel with the antiviral assay; format: cell-based; details: uninfected HEp-2 cells, 4 days incubation, 50% toxicity dose
Description: HEp-2 cells and RSV (Group A, Long Strain) were obtained from the American Type Culture Collection (Manassas, Va.). Cytotoxicity of the compounds was determined in experiments done in parallel with the antiviral assays. To do this, 100 μL of assay medium was added to the wells of HEp-2 cells pretreated with 100 μL serially diluted compounds as described above. After 4 days of incubation, the viability of the cells was determined by the MT assay in the same way as detailed in the “Antiviral Assay” method. Results were expressed as 50% toxicity dose (TD50) values. Compounds were tested to determine both their antiviral and toxicity to determine their therapeutic window. Determination of the EC50 and TD50 of these active compounds were repeated one additional time to confirm the window.

[2] = HEp-2 cells, 0.2 MOI RSV, 4 days incubation, protection from CPE (Table 1)
[3] = HEp-2 cells, 0.2 MOI RSV, 4 days, Table 2, determination repeated to confirm window

SMILES | EC50 [1, 2] | EC50 [1, 3] | MTT TD50 (HEp-2 cells) | EC50 [1]
CC(C)C1CN(c2cnc3ccccc3n2)CCN1/C(=N\C#N)Nc1ccccc1Cl (centres unmarked) [Example 1.19, N-(2-chlorophenyl)-N′-cyano-2-isopropyl-4-(quinoxalin-2-yl)piperazine-1-carboximidamide] | 150 nM | 150 nM | >27.49 µM | 
Cc1ccccc1N/C(=N/C#N)N1CCN(c2nc3cccc(Cl)c3o2)CC1C(C)C (centres unmarked) [Example 1.5, 4-(7-chloro-1,3-benzoxazol-2-yl)-N′-cyano-2-isopropyl-N-(2-methylphenyl)piperazine-1-carboximidamide] | 810 nM | 810 nM | >10 µM | 
Cc1ccccc1N/C(=N/C#N)N1CCN(c2cnc3ccccc3n2)C[C@@H]1C(C)C [Example 1.13, (2S)—N′-cyano-2-isopropyl-N-(2-methylphenyl)-4-(quinoxalin-2-yl)piperazine-1-carboximidamide trifluoroacetate] |  |  | >38.6 µM | 200 nM
Cc1ccccc1N/C(=N/C#N)N1CCN(c2nccnc2C#N)CC1C(C)C (centres unmarked) [Example 1.1, N′-cyano-4-(3-cyanopyrazin-2-yl)-2-isopropyl-N-(2-methylphenyl)piperazine-1-carboximidamide] | 890 nM | 890 nM | >100 µM | 
CCC1CN(c2cnc3ccccc3n2)CCN1/C(=N\C#N)Nc1ccccc1C (centres unmarked) [Example 1.44, N′-cyano-2-ethyl-N-(2-methylphenyl)-4-(quinoxalin-2-yl)piperazine-1-carboximidamide] | 120 nM | 120 nM | 42.06 µM | 
Cc1ccc2oc(N3CCN(/C(=N\C#N)Nc4ccccc4C)C(C(C)C)C3)nc2c1 (centres unmarked) [Example 1.7, N′-cyano-2-isopropyl-4-(5-methyl-1,3-benzoxazol-2-yl)-N-(2-methylphenyl)piperazine-1-carboximidamide] | 830 nM | 830 nM | >10 µM | 
Cc1ccccc1N/C(=N/C#N)N1CCN(c2nc3ccccc3[nH]2)CC1C(C)C (centres unmarked) [Example 1.9, 4-(1H-benzimidazol-2-yl)-N′-cyano-2-isopropyl-N-(2-methylphenyl)piperazine-1-carboximidamide] | 4090 nM | 4090 nM | >100 µM | 
COC(=O)c1cnc(N2CCN(/C(=N\C#N)Nc3ccccc3Cl)C(C(C)C)C2)cn1 (centres unmarked) [Example 1.2, methyl 5-{4-[N-(2-chlorophenyl)-N′-cyanocarbamimidoyl]-3-isopropylpiperazin-1-yl}pyrazine-2-carboxylate] | 1130 nM | 1130 nM | >100 µM | 
Cc1ccccc1N/C(=N/C#N)N1CCN(c2ncnc3ccccc23)CC1C(C)C (centres unmarked) [Example 1.8, N′-cyano-2-isopropyl-N-(2-methylphenyl)-4-(quinazolin-4-yl)piperazine-1-carboximidamide] | 450 nM | 300 nM | >100 µM | 
Cc1ccccc1N/C(=N/C#N)N1CCN(c2ncnc3[nH]ccc23)CC1C(C)C (centres unmarked) [Example 1.11, N′-cyano-2-isopropyl-N-(2-methylphenyl)-4-(7H-pyrrolo[2,3-d]pyrimidin-4-yl)piperazine-1-carboximidamide] | 1410 nM | 1910 nM | >100 µM | 
Cc1ccccc1N/C(=N/C#N)N1CCN(c2cnc3cc(F)ccc3n2)CC1C(C)C (centres unmarked) [Example 1.54, N′-cyano-4-(6-fluoroquinoxalin-2-yl)-2-isopropyl-N-(2-methylphenyl)piperazine-1-carboximidamide] | 260 nM | 260 nM | >29.31 µM | 
Cc1ccccc1N/C(=N/C#N)N1CCN(c2nc3ccccc3s2)CC1C(C)C (centres unmarked) [Example 1.6, 4-(1,3-benzothiazol-2-yl)-N′-cyano-2-isopropyl-N-(2-methylphenyl)piperazine-1-carboximidamide] | 1590 nM | 1870 nM | >10 µM | 
Cc1ccccc1N/C(=N/C#N)N1CCN(c2nc3ccccc3c(=O)[nH]2)CC1C(C)C (centres unmarked) [Example 1.10, N′-cyano-2-isopropyl-N-(2-methylphenyl)-4-(4-oxo-3,4-dihydroquinazolin-2-yl)piperazine-1-carboximidamide] | 430 nM | 430 nM | >100 µM | 
Cc1ccccc1N/C(=N/C#N)N1CCN(c2nc3ccccc3o2)CC1C(C)C (centres unmarked) [Example 1.4, 4-(1,3-benzoxazol-2-yl)-N′-cyano-2-isopropyl-N-(2-methylphenyl)piperazine-1-carboximidamide] | 1140 nM | 1140 nM | 28.85 µM | 
